Results: PubChem BioAssay (NCI)
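Protocol summary: plate cells (96-well), add compound at 5 concentrations, incubate 48 h, interpolate endpoints linearly. Here, GI50 denotes the concentration required for 50% inhibition of growth. The concentration for full growth arrest is given as TGI.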

How the values were obtained:
Experiment in all cases: NCI-60 cell line screen, 48 h
UACC-62 melanoma = test system: UACC-62 melanoma
IGROV1 ovarian = test system: IGROV1 ovarian
KM12 colon = test system: KM12 colon
UACC-257 melanoma = test system: UACC-257 melanoma
CAKI-1 renal = test system: CAKI-1 renal
SK-MEL-5 melanoma = test system: SK-MEL-5 melanoma
K-562 leukemia = test system: K-562 leukemia
EKVX NSCLC = test system: EKVX NSCLC
A498 renal = test system: A498 renal
RXF 393 renal = test system: RXF 393 renal

Structure (SMILES) | TGI (UACC-62 melanoma) [µM] | TGI (IGROV1 ovarian) [µM] | TGI (KM12 colon) [µM] | TGI (UACC-257 melanoma) [µM] | TGI (CAKI-1 renal) [µM] | TGI (SK-MEL-5 melanoma) [µM] | TGI (K-562 leukemia) [µM] | TGI (EKVX NSCLC) [µM] | TGI (A498 renal) [µM] | TGI (RXF 393 renal) [µM] | GI50 (UACC-62 melanoma) [nM] | GI50 (KM12 colon) [nM] | GI50 (UACC-257 melanoma) [nM] | GI50 (CAKI-1 renal) [nM] | GI50 (SK-MEL-5 melanoma) [nM] | GI50 (A498 renal) [nM] | GI50 (RXF 393 renal) [nM]
Cc1c(C#N)c(=N)oc2ccccc12 | > 100 | > 100 | > 100 | > 100 | > 100 | > 100 | > 100 | > 100 | > 100 | > 100 | – | – | – | – | – | – | –
C[PH+](c1nc2ccccc2nc1[PH+](C)C(C)(C)C)C(C)(C)C.C[PH+](c1nc2ccccc2nc1[PH+](C)C(C)(C)C)C(C)(C)C.[Au+].[Cl-] (configuration not stated) | 0.165 | – | 0.131 | 0.278 | 0.537 | 0.105 | – | – | 0.445 | 0.449 | 37.1 | 31.4 | 35.9 | 222 | 32.9 | 26.3 | 103
CC1CN=C(c2ccc(CN3CCC(C4CCN(Cc5ccc(C6=NCC(C)N6)cc5)CC4)CC3)cc2)N1 (configuration not stated) | 41.7 | > 100 | 31.8 | 52.4 | > 100 | > 100 | 44.8 | 47.2 | 80.6 | 33.5 | – | – | – | – | – | – | –
CCOC(=O)c1c(N)sc2c1C(C(=O)OCC)CCC2 (configuration not stated) | > 100 | > 100 | > 100 | > 100 | – | > 100 | > 100 | > 100 | > 100 | > 100 | – | – | – | – | – | – | –
C=CCCCCn1c2ccccc2c2c(C)c3cnccc3c(C)c21 | 40.9 | 46.4 | 42.6 | 18.7 | 27.8 | 16.7 | 16.1 | 34.4 | 17.8 | 43 | – | – | – | – | – | – | –
C[C@]12CC[C@H]3[C@@H](CCC4=C(Br)C(=O)C=C[C@@]43O)[C@@H]1CCC2=O | > 100 | > 100 | > 100 | 63.8 | > 100 | > 100 | > 100 | > 100 | > 100 | 57.1 | – | – | – | – | – | – | –
Cc1nc2cccc(F)c2c(=O)n1-c1nnc(C(F)(F)F)s1 | > 10 | > 10 | > 10 | > 10 | > 10 | > 10 | > 10 | > 10 | – | > 10 | – | – | – | – | – | – | –
C/C(=N/NC(=S)N1CCN(C(=S)N/N=C(/C)c2ccccn2)CC1)c1ccccn1 | > 100 | > 100 | > 100 | > 100 | > 100 | > 80.7 | > 100 | > 100 | > 58.6 | 41.4 | – | – | – | – | – | – | –
COc1cc(CNC(=S)CCCCCCCCCCC(C)C)ccc1O | > 100 | > 100 | 94.4 | > 100 | – | > 100 | > 100 | > 100 | > 100 | > 100 | – | – | – | – | – | – | –
O=[N+]([O-])c1ccc2c(c1)n1c(N3CCCC3)[n+]3ccccc3c1c1c3cccc[n+]3c(N3CCCC3)n21 | > 100 | > 100 | > 100 | > 100 | > 100 | > 100 | 88.2 | > 100 | > 100 | > 100 | – | – | – | – | – | – | –
O=C(O)CCSC1=NCCN1 | > 100 | > 100 | > 100 | > 100 | > 100 | > 100 | > 100 | > 100 | > 100 | > 100 | – | – | – | – | – | – | –
CC1=NN2C(=N)/C(=C/c3ccccc3)C(=O)N=C2S1 | > 100 | > 100 | > 100 | > 100 | > 100 | > 100 | > 100 | > 100 | > 100 | > 100 | – | – | – | – | – | – | –
C[C@]12CCC(=O)C=C1CC[C@@H]1[C@@H]2[C@@H](O)C[C@@]2(C)[C@H]1CC[C@]2(O)C(=O)COC(=O)CCC1CCCC1 | > 100 | > 100 | > 100 | > 100 | > 100 | > 100 | – | > 100 | > 100 | > 100 | – | – | – | – | – | – | –
COc1cc2c(c(OC)c1)C(=O)O[C@H](C)CCCC/C=C/C2 | > 58 | > 31.1 | > 35.2 | > 33.9 | 26.4 | 11.2 | > 100 | 29.6 | > 100 | 25.2 | – | – | – | – | – | – | –
COc1cc2c(cc1O)CCN(C)[C@H]2Cc1ccc(Oc2c(O)c(OC)cc3c2C[C@H]2c4c(c(OC)c(OC)c(OC)c4-3)CCN2C)cc1 | 9.44 | 10.7 | 8.89 | 13.4 | 10.9 | 7.65 | 3.33 | 11.3 | 12.7 | 6.46 | – | – | – | – | – | – | –
CCN(CCCl)c1cccc(NC(=O)c2ccc(C(=O)Nc3cccc(CN(C)C)c3)cc2)c1 | 0.309 | 1.13 | – | 0.304 | 1.58 | – | 10.9 | – | 0.502 | 0.0298 | – | – | – | – | – | – | –
CCN(CC)C1Oc2cc3c(cc2C(c2cc(OC)c(OC)c(OC)c2)C1C)OCO3 (configuration not stated) | 98.5 | > 63.2 | 30.7 | > 100 | > 44.2 | 6.68 | 11.1 | > 75.5 | 6.65 | > 44.1 | – | – | – | – | – | – | –
CCOC(=O)CCC(NC(=O)OCc1ccccc1)C(=O)NC(CCC(=O)OCC)C(=O)NC(CCC(=O)OCC)C(=O)NNC(=O)OC(C)(C)C (configuration not stated) | > 100 | > 100 | – | > 100 | – | > 100 | > 100 | > 100 | > 100 | > 100 | – | – | – | – | – | – | –
COC1(OC)C=CC(=O)C=C1 | 4.08 | 4.77 | 25.8 | 8.48 | 11.6 | 46.2 | > 100 | 21.9 | > 91.2 | 4.51 | – | – | – | – | – | – | –
O=c1nc2ccc3sc4ccccc4c(=O)c3n2c(=O)[nH]1 | – | > 100 | > 100 | > 100 | > 100 | > 100 | > 100 | > 100 | > 100 | > 100 | – | – | – | – | – | – | –
CC(C)(C)C(=O)N1CCN(C=O)C1=S | > 100 | > 100 | > 100 | > 100 | > 100 | – | > 100 | > 100 | 80.8 | 81.9 | – | – | – | – | – | – | –
Clc1nc2c(C#Cc3ccccc3)ncnc2n1C1CCCCO1 (configuration not stated) | 27 | 29.2 | 35.1 | 41.1 | 28.1 | 24.8 | > 100 | 12.4 | – | 26.9 | – | – | – | – | – | – | –
